Assay results reported in patent US20230203060A1 (GENFLEET THERAPEUTICS (SHANGHAI) INC., priority 2020, published 2023).

Target: T1, KRAS G12C (Homo sapiens, UniProt P01116, G12C)
T1 construct: purchased Reactionbiology
Assay: KRAS G12C NEA-HTRF experiment (SOS1-catalyzed displacement of GDP by GTP)
Assay type: biochemical
Method in brief: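 His-tagged KRAS G12C preloaded with DY647-GDP was preincubated 15 min at 20 °C with compound, then exchanged with SOS1 (0.2 μM working solution) and GTP (200 μM working solution) for 2 h at 20 °C in the dark. HTRF 665/615 nm ratio with anti-His-Tb was normalised to T0 and no-compound controls; IC50 by four-parameter fit.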

T1 sequence (P01116 1-188 isoform P01116-2 G12C): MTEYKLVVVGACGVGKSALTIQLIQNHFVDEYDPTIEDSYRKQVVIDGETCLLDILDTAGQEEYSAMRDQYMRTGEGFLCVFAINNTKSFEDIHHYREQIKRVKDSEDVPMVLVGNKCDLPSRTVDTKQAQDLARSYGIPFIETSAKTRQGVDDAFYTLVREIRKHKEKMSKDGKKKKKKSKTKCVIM

IC50	SMILES
0.105 µM	C=CC(=O)N1CCN2C(=O)c3c(N4CC(N5CCN(C)CC5)CC4(C)C)nc(-c4ccccc4F)c(F)c3OC[C@H]2C1 (stereo partly drawn) [Z474, (6aR)-8-acryloyl-1-(2,2-dimethyl-4-(4-methylpiperazin-1-yl)pyrrolidin-1-yl)-4-fluoro-3-(2-fluorophenyl)-6,6a,7,8,9,10-hexahydro-12H-pyrazino[2,1-c]pyrido[3,4-f][1,4]oxazepin-12-one]
0.0225 µM	C=CC(=O)N1CCN2C(=O)c3c(N4C[C@@H](N(C)C)CC4(C)C)nc(-c4c(F)ccc(F)c4O)c(Cl)c3OC[C@H]2C1 [Z475-1, (6aR)-8-acryloyl-4-chloro-3-(3,6-difluoro-2-hydroxyphenyl)-1-((S)-4-(dimethylamino)-2,2-dimethylpyrrolidin-1-yl)-6,6a,7,8,9,10-hexahydro-12H-pyrazino[2,1-c]pyrido[3,4-f][1,4]oxazepin-12-one]
0.057 µM	C=CC(=O)N1CCN2C(=O)c3c(N4CCN(C(=O)CC)C[C@@H]4C)nc(-c4ccccc4F)c(Cl)c3OC[C@H]2C1 [Z477, (R)-8-acryloyl-4-chloro-3-(2-fluorophenyl)-1-((S)-2-methyl-4-propionylpiperazin-1-yl)-6,6a,7,8,9,10-hexahydro-12H-pyrazino[2,1-c]pyrido[3,4-f][1,4]oxazepin-12(6aH)-one]
0.0652 µM	C=CC(=O)N1CCN2C(=O)c3c(N4C[C@@H](N5CC(OC)C5)CC4(C)C)nc(-c4ccccc4F)c(Cl)c3OC[C@H]2C1 [Z479-1, (R)-8-acryloyl-4-chloro-3-(2-fluorophenyl)-1-((S)-4-(3-methoxyazetidin-1-yl)-2,2-dimethylpyrrolidin-1-yl)-6,6a,7,8,9,10-hexahydro-12H-pyrazino[2,1-c]pyrido[3,4-f][1,4]oxazepin-12-one]
0.0179 µM	C=CC(=O)N1CCN2C(=O)c3c(N4C[C@@H](N5CC(F)C5)CC4(C)C)nc(-c4ccccc4F)c(Cl)c3OC[C@H]2C1 [Z480-1, (R)-8-acryloyl-4-chloro-1-((S)-4-(3-fluoroazetidin-1-yl)-2,2-dimethylpyrrolidin-1-yl)-3-(2-fluorophenyl)-6,6a,7,8,9,10-hexahydro-12H-pyrazino[2,1-c]pyrido[3,4-f][1,4]oxazepin-12-one]
0.042 µM	C=CC(=O)N1CCN2C(=O)c3c(N4C[C@@H](O)CC4(C)C)nc(-c4c(N)cccc4F)c(F)c3OC[C@H]2C1 [Z481, (6aR)-8-acryloyl-3-(2-amino-6-fluorophenyl)-4-fluoro-1-((S)-4-hydroxy-2,2-dimethylpyrrolidin-1-yl)-6,6a,7,8,9,10-hexahydro-12H-pyrazino[2,1-c]pyrido[3,4-f][1,4]oxazepin-12-one]
0.28 µM	C=CC(=O)N1CCN2C(=O)c3c(N4CC[C@@H](N(C)C)C4(C)C)nc(-c4ccccc4F)c(Cl)c3OC[C@H]2C1 [Z502-1, (6aR)-8-acryloyl-4-chloro-1-(3-(dimethylamino)-2,2-dimethylpyrrolidin-1-yl)-3-(2-fluorophenyl)-6,6a,7,8,9,10-hexahydro-12H-pyrazino[2,1-c]pyrido[3,4-f][1,4]oxazepin-12(6aH)-one]
0.16 µM	C=CC(=O)N1CCN2C(=O)c3c(N4CC[C@H](N(C)C)C4(C)C)nc(-c4ccccc4F)c(Cl)c3OC[C@H]2C1 [Z502-2, (6aR)-8-acryloyl-4-chloro-1-(3-(dimethylamino)-2,2-dimethylpyrrolidin-1-yl)-3-(2-fluorophenyl)-6,6a,7,8,9,10-hexahydro-12H-pyrazino[2,1-c]pyrido[3,4-f][1,4]oxazepin-12(6aH)-one]
0.176 µM	C=CC(=O)N1CCN2C(=O)c3c(N4CCN(C)C[C@@H]4C)nc(-c4c(N)cccc4F)c(Cl)c3OC[C@H]2C1 [Z503, (6aR)-8-acryloyl-3-(2-amino-6-fluorophenyl)-4-chloro-1-((S)-2,4-dimethylpiperazin-1-yl)-6,6a,7,8,9,10-hexahydro-12H-pyrazino[2,1-c]pyrido[3,4-f][1,4]oxazepin-12-one]
0.0183 µM	C=CC(=O)N1CCN2C(=O)c3c(N4CCC(OC)C4(C)C)nc(-c4c(N)cccc4F)c(Cl)c3OC[C@H]2C1 (stereo partly drawn) [Z506, (6aR)-8-acryloyl-3-(2-amino-6-fluorophenyl)-4-chloro-1-(3-methoxy-2,2-dimethylpyrrolidin-1-yl)-6,6a,7,8,9,10-hexahydro-12H-pyrazino[2,1-c]pyrido[3,4-f][1,4]oxazepin-12-one]
0.044 µM	C=CC(=O)N1CCN2C(=O)c3c(N4CC(N5CCC(F)(F)C5)CC4(C)C)nc(-c4ccccc4F)c(Cl)c3OC[C@H]2C1 (stereo partly drawn) [Z532, (6aR)-8-acryloyl-4-chloro-1-(3,3-difluoro-5′,5′-dimethyl-[1,3′-bipyrrolidin]-1′-yl)-3-(2-fluorophenyl)-6,6a,7,8,9,10-hexahydro-12H-pyrazino[2,1-c]pyrido[3,4-f][1,4]oxazepin-12-one]
0.139 µM	C=CC(=O)N1CCN2C(=O)c3c(N4CCN(C)C[C@@H]4C)nc(-c4c(F)cccc4Cl)c(Cl)c3OC[C@H]2C1 [Z547, (6aR)-8-acryloyl-4-chloro-3-(2-chloro-6-fluorophenyl)-1-((S)-2,4-dimethylpiperazin-1-yl)-6,6a,7,8,9,10-hexahydro-12H-pyrazino[2,1-c]pyrido[3,4-f][1,4]oxazepin-12-one]
0.298 µM	C=CC(=O)N1CCN2C(=O)c3c(N4CCN(C)[C@@H](C)[C@@H]4C)nc(-c4ccccc4F)c(Cl)c3OC[C@H]2C1 [Z653, (R)-8-acryloyl-4-chloro-3-(2-fluorophenyl)-1-((2S,3S)-2,3,4-trimethylpiperazin-1-yl)-6,6a,7,8,9,10-hexahydro-12H-pyrazino[2,1-c]pyrido[3,4-f][1,4]oxazepin-12 (6aH)-one]
0.168 µM	C=CC(=O)N1CCN2C(=O)c3c(N4C[C@H](N5CC(F)C5)CC4(C)C)nc(-c4ccccc4F)c(F)c3OC[C@H]2C1 [Z654-2, (R)-8-acryloyl-4-fluoro-1-((R)-4-(3-fluoroazetidin-1-yl)-2,2-dimethylpyrrolidin-1-yl)-3-(2-fluorophenyl)-6,6a,7,8,9,10-hexahydro-12H-pyrazino[2,1-c]pyrido[3,4-f][1,4]oxazepin-12-one]
0.0284 µM	C=CC(=O)N1CCN2C(=O)c3c(N4CC(N(C)CCO)CC4(C)C)nc(-c4ccccc4F)c(Cl)c3OC[C@H]2C1 (stereo partly drawn) [Z658, (6aR)-8-acryloyl-4-chloro-3-(2-fluorophenyl)-1-(4-((2-hydroxyethyl)(methyl)amino)-2,2-dimethylpyrrolidin-1-yl)-6,6a,7,8,9,10-hexahydro-12H-pyrazino[2,1-c]pyrido[3,4-f][1,4]oxazepin-12-one]
0.0329 µM	C=CC(=O)N1CCN2C(=O)c3c(N4CC(NC)CC4(C)C)nc(-c4ccccc4F)c(Cl)c3OC[C@H]2C1 (stereo partly drawn) [Z661, (6aR)-8-acryloyl-4-chloro-1-(2,2-dimethyl-4-(methylamino)pyrrolidin-1-yl)-3-(2-fluorophenyl)-6,6a,7,8,9,10-hexahydro-12H-pyrazino[2,1-c]pyrido[3,4-f][1,4]oxazepin-12-one]
